In patent US9079913B2, “Spiro-oxindole MDM2 antagonists” (The Regents of the University of Michigan, priority 2009, dated 2015):
Read-outs that look alike come from different tables or passages of the source.

Tests used:
[1] = test system: Isogenic HCT-116 colon cancer cell lines; assay: cells; type: cell-based;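 also: cells grown in 96-well plates in McCoy's 5A medium with 10% FBS, exposed to compound for 4 days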
Description: Cells were seeded in 96-well flat bottom cell culture plates at a density of 2−3×10^3 cells/well with compounds and incubated for 4 days.

[2] = test system: cancer cell lines with wild-type p53 / mutated or deleted p53 (ATCC); assay: Cell growth assay (WST-8), other cancer cell lines; type: cell-based
[3] = biological target: recombinant human His-tagged MDM2 protein (residues 1-118) (Homo sapiens (Human), UniProt Q00987); assay: Fluorescence-polarization MDM2 binding assay;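 also: fluorescence polarization read after three hours of incubation in potassium phosphate buffer containing bovine gamma globulin and Triton X-100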
Chain of recombinant human His-tagged MDM2 protein (residues 1-118) (Q00987 1-118): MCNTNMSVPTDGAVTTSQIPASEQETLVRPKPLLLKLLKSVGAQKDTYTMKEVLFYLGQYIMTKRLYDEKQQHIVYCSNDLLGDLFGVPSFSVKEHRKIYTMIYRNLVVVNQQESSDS

[4] = Homo sapiens, HCT-116, read-out: HCT116p53KO IC50, Table 19D, HCT116 p53KO
[5] = Homo sapiens, HCT-116, read-out: HCT116p53WT IC50, Table 19D, HCT116 p53WT
[6] = Homo sapiens, LNCaP, Table 19D, LNCaP cells, read-out: LNCaP IC50
[7] = Homo sapiens, PC-3, Table 19D, PC3 cells, read-out: PC3 IC50
[8] = Homo sapiens, Table 19D, SJSA-1 cells, unit inferred, read-out: SJSA-1
[9] = Table 19D, read-out: MDM2 Binding Affinities IC50
[10] = Homo sapiens, HCT-116, read-out: Inhibition of cell growth IC50, HCT116 p53 KO, Table 19B, HCT116 p53 KO
[11] = Homo sapiens, HCT-116, read-out: Inhibition of cell growth IC50, HCT116 p53 WT, Table 19B, HCT116 p53 WT
[12] = Homo sapiens, LNCaP, Table 19B, LNCaP cells, read-out: Inhibition of cell growth IC50, LNCaP
[13] = Homo sapiens, PC-3, Table 19B, PC3 cells, read-out: Inhibition of cell growth IC50, PC3
[14] = Table 19B, read-out: Binding affinities to MDM2 protein as determined by FP based assay IC50
[15] = Homo sapiens, HCT-116, read-out: HCT-116 (p53-/-) IC50, Table 19A, HCT-116 p53-/-, cell growth
[16] = Homo sapiens, HCT-116, read-out: HCT-116 (p53 wild-type) IC50, Table 19A, HCT-116 p53 wild-type, cell growth
[17] = Homo sapiens, LNCaP, Table 19A, LNCAP cells, p53 wild-type, cell growth, read-out: LNCAP (p53 wild-type) IC50
[18] = Homo sapiens, PC-3, Table 19A, PC-3 cells, deleted p53, cell growth, read-out: PC-3 (deleted p53) IC50
[19] = Homo sapiens, SJSA-1, Table 19A, SJSA-1 cells, p53 wild-type, cell growth, read-out: SJSA-1 (p53 wild-type) IC50
[20] = Table 19A, FP binding assay, read-out: MDM2 IC50

Question: What does the source list for `CC(C)(C)C[C@H]1N[C@@H](C(=O)N[C@@H]2CCN(CCF)C[C@@H]2F)[C@H](c2cccc(Cl)c2F)[C@@]12C(=O)Nc1cc(Cl)ccc12` [MI-519-59]?
Answer: IC50 [1, 4]: > 10 µM; IC50 [1, 5]: < 1 µM; IC50 [2, 6]: < 3 µM; IC50 [2, 7]: > 10 µM; IC50 [2, 8]: < 3 µM; IC50 [3, 9]: < 1 µM

Question: Which results are given for `CC(C)(C)C[C@H]1N[C@@H](C(=O)NCCCO)[C@H](c2cccc(Cl)c2)[C@@]12C(=O)Nc1cc(Cl)c(F)cc12` [MI-219-M8]?
Answer: IC50 [1, 4]: 18 ± 4.1 µM; IC50 [1, 5]: 1.4 ± 0.9 µM; IC50 [2, 6]: 1.1 ± 0.5 µM; IC50 [2, 7]: 9.2 ± 1.6 µM; IC50 [3, 9]: < 1 µM

Question: Which IC50 [1, 10] does the source give for `CC(C)(C)C[C@H]1N[C@@H](C(=O)NCCC2CCC(O)C2)[C@H](c2cccc(Cl)c2F)[C@@]12C(=O)Nc1cc(Cl)ccc12` (stereo partly drawn) [MI-755] here?
Answer: > 10 µM

Question: And the IC50 [1, 11]?
Answer: < 3 µM

Question: And the IC50 [2, 12]?
Answer: < 3 µM

Question: And the IC50 [2, 13]?
Answer: > 10 µM

Question: What about the IC50 [3, 14] of the same molecule?
Answer: < 1 µM

Question: Which results are given for `CC(C)CC(C)(C)C[C@H]1N(C)[C@@H](C(=O)NCC[C@H](O)CO)[C@H](c2cccc(Cl)c2F)[C@@]12C(=O)Nc1cc(F)c(F)cc12` [MI-734]?
Answer: IC50 [1, 10]: 8.2 ± 3.5 µM; IC50 [1, 11]: 5.5 ± 2.1 µM; IC50 [2, 12]: 3.7 ± 1.1 µM; IC50 [2, 13]: 7.4 ± 1.8 µM; IC50 [3, 14]: > 5 µM

Question: What does the source list for `CN1[C@@H](C(=O)NCC[C@H](O)CO)[C@H](c2cccc(Cl)c2)[C@@]2(C(=O)Nc3cc(Cl)c(F)cc32)[C@H]1CCCc1cccs1` [MI-711]?
Answer: IC50 [1, 10]: 6.3 ± 2.9 µM; IC50 [1, 11]: 8.6 ± 1.2 µM; IC50 [2, 12]: 4.8 ± 1.1 µM; IC50 [2, 13]: 9.3 ± 2.5 µM; IC50 [3, 14]: > 5 µM

Question: `CC(C)(C)C[C@H]1N[C@@H](C(=O)NC2CCC(OC(=O)[C@@H](N)Cc3ccccc3)CC2)[C@H](c2cccc(Cl)c2F)[C@@]12C(=O)Nc1cc(Cl)ccc12` (stereo partly drawn) [MI-910] was tested. Which IC50 [1, 15] did it give?
Answer: 9.8 µM

Question: What about the IC50 [1, 16] of the same molecule?
Answer: < 3 µM

Question: And the IC50 [2, 17]?
Answer: < 3 µM

Question: What about the IC50 [2, 18] of the same molecule?
Answer: 7 µM

Question: What about the IC50 [2, 19] of the same molecule?
Answer: < 3 µM

Question: What about the IC50 [3, 20] of the same molecule?
Answer: < 1 µM

Question: With `CN1[C@@H](C(=O)NCC[C@H](O)CO)[C@H](c2cccc(Cl)c2)[C@@]2(C(=O)Nc3cc(Cl)c(F)cc32)[C@H]1CC(C)(C)C` [MI-708A] as the molecule, how does the IC50 ([1]; read-out: Inhibition of cell growth IC50, HCT116 p53 KO, Table 19B, HCT116 p53 KO) read?
Answer: 95.6 ± 18.2 µM

Question: And the IC50 ([1]; read-out: Inhibition of cell growth IC50, HCT116 p53 WT, Table 19B, HCT116 p53 WT)?
Answer: 3.8 ± 1 µM

Question: And the IC50 ([2]; Table 19B, LNCaP cells, read-out: Inhibition of cell growth IC50, LNCaP)?
Answer: 3.5 µM

Question: And the IC50 ([2]; Table 19B, PC3 cells, read-out: Inhibition of cell growth IC50, PC3)?
Answer: 83.8 ± 11.3 µM

Question: And the IC50 [3, 14]?
Answer: > 3 µM

Question: With `O=C(NCC[C@H](O)CO)[C@@H]1N[C@H](CCC2CCCC2)[C@]2(C(=O)Nc3cc(Cl)c(F)cc32)[C@H]1c1cccc(Cl)c1` [MI-712] as the molecule, how does the IC50 [1, 10] read?
Answer: 9.1 ± 1 µM

Question: And the IC50 [1, 11]?
Answer: 1.8 ± 0.4 µM

Question: What about the IC50 [2, 12] of the same molecule?
Answer: 1 µM

Question: What about the IC50 [2, 13] of the same molecule?
Answer: 7.9 ± 0.2 µM

Question: And the IC50 [3, 14]?
Answer: < 3 µM

Question: Which IC50 [1, 4] does the source give for `CC(C)(C)C[C@H]1N[C@@H](C(=O)NC2CCN(CCC(F)(F)F)CC2)[C@H](c2cccc(Cl)c2F)[C@@]12C(=O)Nc1cc(Cl)ccc12` [MI-519-57-1] here?
Answer: 9.5 µM

Question: And the IC50 [1, 5]?
Answer: < 3 µM

Question: What about the IC50 [2, 6] of the same molecule?
Answer: < 3 µM

Question: And the IC50 [2, 7]?
Answer: 8.8 µM

Question: And the IC50 [2, 8]?
Answer: < 3 µM

Question: What about the IC50 [3, 9] of the same molecule?
Answer: < 1 µM

Question: Which IC50 [1, 15] does the source give for `CC(C)(C)C[C@H]1N[C@@H](C(=O)NC2CCC(OC(=O)[C@H](Cc3ccccc3)NC(=O)OC(C)(C)C)CC2)[C@H](c2cccc(Cl)c2F)[C@@]12C(=O)Nc1cc(Cl)ccc12` (stereo partly drawn) [MI-908] here?
Answer: > 30 µM

Question: What about the IC50 [1, 16] of the same molecule?
Answer: 5.3 µM

Question: What about the IC50 [2, 17] of the same molecule?
Answer: 4.3 µM

Question: And the IC50 [2, 18]?
Answer: ~30 µM

Question: And the IC50 [2, 19]?
Answer: 22.5 µM

Question: What about the IC50 [3, 20] of the same molecule?
Answer: > 10 µM

Question: Which results are given for `CC(C)C[C@H](N)C(=O)OC1CCC(NC(=O)[C@@H]2N[C@H](CC(C)(C)C)[C@]3(C(=O)Nc4cc(Cl)ccc43)[C@H]2c2cccc(Cl)c2F)CC1` (stereo partly drawn) [MI-903]?
Answer: IC50 [1, 15]: 12.1 µM; IC50 [1, 16]: < 3 µM; IC50 [2, 17]: < 3 µM; IC50 [2, 18]: 3.5 µM; IC50 [2, 19]: < 3 µM; IC50 [3, 20]: < 3 µM

Question: What does the source list for `CN1[C@@H](C(=O)NCC[C@H](O)CO)[C@H](c2cccc(Cl)c2)[C@@]2(C(=O)Nc3cc(Cl)c(F)cc32)[C@H]1CCCc1ccccc1` [MI-709]?
Answer: IC50 [1, 10]: 9.4 ± 1.2 µM; IC50 [1, 11]: 9.9 ± 1.7 µM; IC50 [2, 12]: 5.6 ± 1.1 µM; IC50 [2, 13]: 7.2 ± 1.4 µM; IC50 [3, 14]: > 10 µM

Question: With `CC(C)(C)C[C@H]1N[C@@H](C(=O)NCCN2CC[C@H](O)C2)[C@H](c2cccc(Cl)c2)[C@@]12C(=O)Nc1cc(Cl)c(F)cc12` [MI-519-35] as the molecule, how does the IC50 [1, 15] read?
Answer: 5.3 ± 0.6 µM

Question: And the IC50 [1, 16]?
Answer: 1.8 ± 0.5 µM

Question: What about the IC50 [2, 17] of the same molecule?
Answer: 1.4 ± 0.5 µM

Question: And the IC50 [2, 18]?
Answer: 6.7 ± 0.9 µM

Question: And the IC50 [3, 20]?
Answer: < 1 µM

Question: What does the source list for `CN(CC[C@H](O)CO)C(=O)[C@@H]1N[C@H](CC(C)(C)C)[C@]2(C(=O)Nc3cc(Cl)c(F)cc32)[C@H]1c1cccc(Cl)c1` [MI-319-29]?
Answer: IC50 ([1]; Homo sapiens, HCT-116, read-out: Cell growth inhibition using WST assay, HCT116 p53KO IC50, Table 19C, HCT116 p53KO): > 10 µM; IC50 ([1]; Homo sapiens, HCT-116, read-out: Cell growth inhibition using WST assay, HCT116 p53WT IC50, Table 19C, HCT116 p53WT): > 10 µM; IC50 ([2]; Homo sapiens, LNCaP, Table 19C, LNCaP cells, read-out: Cell growth inhibition using WST assay, LNCaP IC50): > 10 µM; IC50 ([2]; Homo sapiens, PC-3, Table 19C, PC3 cells, read-out: Cell growth inhibition using WST assay, PC3 IC50): > 10 µM; IC50 ([3]; Table 19C, read-out: Bidning affinities to MDM2 as determined using FP assay IC50): > 5 µM
